US6906072B1, “Piperazine compound and pharmaceutical composition containing the compound” (Eisai Co., Ltd., priority 2000, dated 2005)
Structures can show the parent of a compound that is named as a salt.

Key:
[1] = system: potential dependent calcium channel; assay: Measurement of potential dependent calcium channel activity using fluorescent dye (fura2) in cerebral cortex synaptosome stimulated with KCl; assay type: cell-based, rat
[2] = system: T1, potential dependent calcium channel; conditions: 1 μM; cited from earlier work
T1 construct: other: 1 μM

[3] = system: rat middle cerebral artery emphraxis model; assay: Shrinking effect of infarction nidus in rat middle cerebral artery emphraxis model; assay type: in vivo; conditions: for volume of the infarction nidus of cerebral cortex: average value±standard error, after 24 hours; for reduction of the volume of the infarction nidus of cerebral cortex: from 30 minutes after emphraxis, vs control group, measured after 24 hours
Excerpt: Shrinking Effect of Infarction nidus in rat Middle Cerebral Artery Emphraxis Model (I)
A calcium ion in the cell plays an important role in the expression of various cell functions. But when the calcium ion concentration in the cell rises excessively, cell affection is induced (refer to literatures 1) and 2), hereinafter, the same as this.). For example, neural cell affection induced by excitatory amino-acid occurring in the case of cerebral ischemia provokes excessive rise of the calcium ion concentration in the cell (3) and 4)). The maintenance mechanism of membrane potential fails by excitatory amino-acid which rose in the case of local cerebral ischemia (3)), the depolarization of membrane is induced (5)), and the influx of the calcium ion into the cell through the potential dependent calcium channel is increased (6) and 7)). […] The potential dependent calcium channels existing in the neural cell are classified in 6 kinds of sub-types based on the electro-physiological and pharmacological investigation (T, L, N, P, Q and R types) (9)). Among these, N, P and Q types play an important role in the liberation of glutamic acid from rat cerebral cortex synaptosome (10) and 11)).
The compound represented by the above formula (I) according to the present invention was dissolved in a physiological saline, and appropriately prepared so as to be in doses of 1.5, 5 and 15 mg/kg/h. The concentration of the specimen was calculated based on the average body weight of an animal. Further, the average body weight was calculated by measuring the body weight of all animals which are intended to be used for experiment. For example, in the case of 5 mg/kg/h, it was calculated as: concentration of specimen=5 mg×average body weight (kg)/administration volume (0.616 ml) per hour. • (2) Manufacture of nylon embolus
The embolus made from nylon stitch (Ethicon, Inc., Somerville, N.J., USA) of 4-0 monofilament was used for emphraxis of middle cerebral artery. As the nylon embolus, that prepared by previously rounding its tip with flame, fragmenting it in a length of 25 mm, and marking at a position of 17 mm from the tip with an oily felt pen was used. • (3) Implantation of catheter for intravenous administration
The implantation of catheter for intravenous administration (Atom Vein Catheter 3Fr, manufactured by ATOM MEDICAL Co., Ltd., Tokyo) was carried out under 70% laughing gas-2% halothane anaesthesia. Catheter which was filled up with a physiological saline solution was inserted from the femoral vein of left foot. • (4) Emphraxis of middle cerebral artery
The emphraxis of middle cerebral artery was carried out in accordance with the method of Longa et al (12)). The operation was carried out under 70% laughing gas-2% halothane anaesthesia just after implanting the catheter. A rat was laid in facing upward under the stereoscopic microscope for operation, the neck was cut open, and the portion where the whole carotid arteries of the right side are diverged to the external carotid artery and the internal carotid artery was confirmed. The external carotid artery was cut off at the periphery side, and the nylon embolus was inserted from the terminal of the external carotid artery which was cut off into the internal carotid artery. The embolus was inserted up to the position where the position of 17 mm from the tip of the embolus is duplicated with a branch point of the external carotid artery and the internal carotid artery, and was fixed.
The rat was caught and lifted with the cauda after 30 minutes from the emphraxis of middle cerebral artery, an indivisual which expresses clearly the one side paralysis of a fore-leg (the paralysis of a fore-leg of the opponent side which loaded infarct) was provided for experiment as an example in which middle cerebral artery was occluded and was able to make an ischemia condition. • (6) Administration of medium and specimen […]

[4] = system: rat local cerebral ischemia model; conditions: literature reports, result in words; cited from earlier work
[5] = system: formalin test using mouse; assay: Analgesic effect in formalin test using mouse; assay type: in vivo; conditions: licking time for 5 minutes
Protocol: Analgesic Effect (I) in Formalin Test Using Mouse
Therefore, the analgesic effect obtained in the case where the intravenous administration of the present compound was carried out was studied in the formalin test (3)) using a mouse.
Ddy mice (male, 4 to 7 weeks age) purchased from Japan SLC Co, were used for experiment. Preliminary feeding of 4 days or more was carried out for mice (breeding condition: a room temperature 23±1° C., air humidity 55±5%, lighting cycle of every 12 hours). The mice were accommodated by a group of approximately 20 in a cage made of polycarbonate for 20 mice in which floor cloth (White Flake, Charles River Co., Ltd., Tokyo) was spread, and were bred. At the morning of the day tested, they were moved to a laboratory. They were freely fed MF (Oriental Yeast Co., Tokyo) as a feed. Further, they drunk city water freely. […]
10 mg/kg of the present compound was intravenously administered via tail vein, 30 mg/kg of morphine was orally administered and 10 mg/kg of indomethacin was orally administered. […] Just after the administration of formalin, the licking time of an action in which a mouse licked his left hind leg was measured for 5 minutes, and it was made as an index of pain. […] Setting the licking time of the control as 100%, the suppression rate (%) of the present compound was calculated by the following calculation formula. […]

formalin test = conditions: administration in spinal cord, literature reports, result in words; cited from earlier work

COc1ccc(CCN(C)CCCC(C#N)(c2ccc(OC)c(OC)c2)C(C)C)cc1OC (centres unmarked) [Control, verapamil hydrochloride]
IC50 [1]: > 16 µM

w-Agatoxin-IVA
inhibition against the Ca2+ influx [2]: 64%

CC(C)C(C#N)(CCCN1CCN(CCOc2cccc(C#N)c2)CC1)c1ccc(C#N)s1 (centres unmarked) [Example 70]
volume of the infarction nidus of cerebral cortex ([3]; 1.5 mg/kg/h intravenous): 128.9±12.5 mm^3 | reduction of the volume of the infarction nidus of cerebral cortex ([3]; 1.5 mg/kg/h intravenous): 4% | volume of the infarction nidus of cerebral cortex ([3]; 5 mg/kg/h intravenous): 108.0±14.9 mm^3 | reduction of the volume of the infarction nidus of cerebral cortex ([3]; 5 mg/kg/h intravenous): 20% | volume of the infarction nidus of cerebral cortex ([3]; 15 mg/kg/h intravenous): 75.7±11.2 mm^3 | reduction of the volume of the infarction nidus of cerebral cortex ([3]; 15 mg/kg/h intravenous): 44%

ω-agatoxin IVA
protection of neural cells in rat local cerebral ischemia model [4]: exhibited a protective action for neural cell

CC(C)N(CCN1CCN(CCCC(C#N)(c2cccs2)C(C)C)CC1)c1ccccn1 (centres unmarked) [Example 189, 1-[4-cyano-4-(2-thienyl)-5-methylhexyl]-4-[2-{N-isopropyl-N-(2-pyridyl)amino]ethyl}Piperazine]
suppression rate of licking time ([5]; 10 mg/kg intravenously, formalin 5 minutes after administration): 59%

n-conotoxin GVIA
inhibition against the Ca2+ influx [2]: 18%

CSCC[C@@H]1NC(=O)[C@H](CC(C)C)NC(=O)[C@H](CCCNC(=N)N)NC(=O)[C@H](CO)NC(=O)[C@@H]2CSSC[C@@H]3NC(=O)[C@H](CO)NC(=O)CNC(=O)[C@H]([C@@H](C)O)NC(=O)[C@H](CSSC[C@H](N)C(=O)N[C@@H](CCCCN)C(=O)NCC(=O)N[C@@H](CCCCN)C(=O)NCC(=O)N[C@@H](C)C(=O)N[C@@H](CCCCN)C(=O)N2)NC(=O)[C@H](CSSC[C@@H](C(N)=O)NC(=O)[C@H](CCCCN)NC(=O)CNC(=O)[C@H](CO)NC(=O)[C@H](CCCNC(=N)N)NC3=O)NC(=O)[C@H](CC(=O)O)NC(=O)[C@H](Cc2ccc(O)cc2)NC1=O [SNX-111]
analgesic action in the formalin test (formalin test): exhibits an analgesic action | protection of neural cells in rat local cerebral ischemia model [4]: protected the liberation of glutamic acid from cerebral cortex and subsequent neural cell affection

CC(C)C(C#N)(CCCN1CCN(CCOc2cccc(C#N)c2)CC1)c1cccs1 (centres unmarked) [Example 75]
volume of the infarction nidus of cerebral cortex ([3]; 1.5 mg/kg/h intravenous): 119.9±12.6 mm^3 | reduction of the volume of the infarction nidus of cerebral cortex ([3]; 1.5 mg/kg/h intravenous): 26% | volume of the infarction nidus of cerebral cortex ([3]; 5 mg/kg/h intravenous): 102.0±14.1 mm^3 | reduction of the volume of the infarction nidus of cerebral cortex ([3]; 5 mg/kg/h intravenous): 37% | volume of the infarction nidus of cerebral cortex ([3]; 15 mg/kg/h intravenous): 83.7±21.3 mm^3 | reduction of the volume of the infarction nidus of cerebral cortex ([3]; 15 mg/kg/h intravenous): 49%

CN1CC[C@]23c4c5ccc(O)c4O[C@H]2[C@@H](O)C=C[C@H]3[C@H]1C5 [morphine, reference compound]
suppression rate of licking time ([5]; 30 mg/kg orally, formalin 30 minutes after administration): 54%
